Data reported in article PMC6389993, “Quercetin and its metabolite isorhamnetin promote glucose uptake through different signalling pathways in myotubes” (Scientific Reports, 2019).

Tests used:
[1] = cited from earlier work
[2] = test system: PKCζ/λ; experiment: Phosphorylation of PKCζ/λ in L6 myotubes; type: cell-based, rat; details: 10 nM, data not shown

SMILES: O=c1c(O)c(-c2ccc(O)c(O)c2)oc2cc(O)cc(O)c12 [quercetin, 3,3′,4′,5,7-pentahydroxy flavone]
- basal concentrations in the blood ([1]; humans, after consumption of 80–100 mg of quercetin equivalent): 300 to 750 nM
- absorption rate ([1]; in humans): 9–20%
- phosphorylation of PKCζ/λ [2]: phosphorylated
